Data: ChEMBL document CHEMBL1201862, “PubChem BioAssay data set” (2004)
The source made the active and inactive calls.

Legend:
[1] = target: T1, Histone-lysine N-methyltransferase NSD2 (Homo sapiens, UniProt O96028); assay type: biochemical
T1 sequence (O96028 whole entry): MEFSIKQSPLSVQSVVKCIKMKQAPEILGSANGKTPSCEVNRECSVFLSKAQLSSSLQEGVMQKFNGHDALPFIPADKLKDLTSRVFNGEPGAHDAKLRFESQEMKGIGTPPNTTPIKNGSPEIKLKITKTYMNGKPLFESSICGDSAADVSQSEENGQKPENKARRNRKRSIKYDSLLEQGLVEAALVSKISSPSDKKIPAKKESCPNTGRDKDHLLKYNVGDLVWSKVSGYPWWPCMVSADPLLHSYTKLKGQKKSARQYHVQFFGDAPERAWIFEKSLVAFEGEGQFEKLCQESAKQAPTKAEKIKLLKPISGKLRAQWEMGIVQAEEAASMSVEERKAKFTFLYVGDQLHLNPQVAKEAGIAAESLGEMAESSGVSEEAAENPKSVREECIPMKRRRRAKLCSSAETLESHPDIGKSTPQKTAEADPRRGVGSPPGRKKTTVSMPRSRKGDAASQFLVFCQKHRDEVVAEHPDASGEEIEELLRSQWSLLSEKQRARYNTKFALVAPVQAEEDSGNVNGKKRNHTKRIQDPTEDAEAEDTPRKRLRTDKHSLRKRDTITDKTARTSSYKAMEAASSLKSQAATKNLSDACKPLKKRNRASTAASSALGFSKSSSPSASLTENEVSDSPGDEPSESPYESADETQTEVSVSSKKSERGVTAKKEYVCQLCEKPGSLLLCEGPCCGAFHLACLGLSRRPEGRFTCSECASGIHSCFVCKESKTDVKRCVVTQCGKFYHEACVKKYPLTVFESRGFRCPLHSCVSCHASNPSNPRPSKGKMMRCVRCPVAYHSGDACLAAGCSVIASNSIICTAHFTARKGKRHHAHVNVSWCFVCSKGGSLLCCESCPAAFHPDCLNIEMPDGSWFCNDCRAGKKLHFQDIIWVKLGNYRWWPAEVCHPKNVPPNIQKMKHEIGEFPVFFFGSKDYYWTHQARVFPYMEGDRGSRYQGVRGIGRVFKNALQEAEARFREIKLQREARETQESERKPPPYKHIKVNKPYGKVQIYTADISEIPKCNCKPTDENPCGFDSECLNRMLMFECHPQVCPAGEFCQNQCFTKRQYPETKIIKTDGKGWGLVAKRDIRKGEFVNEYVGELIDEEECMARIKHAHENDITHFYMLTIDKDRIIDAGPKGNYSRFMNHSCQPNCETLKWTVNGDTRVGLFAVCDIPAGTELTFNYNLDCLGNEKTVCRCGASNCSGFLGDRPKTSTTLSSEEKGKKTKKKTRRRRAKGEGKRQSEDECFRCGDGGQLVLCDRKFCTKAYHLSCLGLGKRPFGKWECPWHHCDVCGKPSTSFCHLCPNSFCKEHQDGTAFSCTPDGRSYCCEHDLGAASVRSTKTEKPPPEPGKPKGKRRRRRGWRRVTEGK

[2] = target: Serine/threonine-protein kinase MRCK alpha (Homo sapiens, UniProt Q5VT25); assay type: functional
[3] = target: 5'-AMP-activated protein kinase catalytic subunit alpha-1 (Homo sapiens, UniProt Q13131); assay type: functional
[4] = target: Serine/threonine-protein kinase 3 (Homo sapiens, UniProt Q13188); assay type: functional;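 note: measured as one member of a kinome-wide kinase panel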
Chain of Serine/threonine-protein kinase 3 (Q13188 whole entry): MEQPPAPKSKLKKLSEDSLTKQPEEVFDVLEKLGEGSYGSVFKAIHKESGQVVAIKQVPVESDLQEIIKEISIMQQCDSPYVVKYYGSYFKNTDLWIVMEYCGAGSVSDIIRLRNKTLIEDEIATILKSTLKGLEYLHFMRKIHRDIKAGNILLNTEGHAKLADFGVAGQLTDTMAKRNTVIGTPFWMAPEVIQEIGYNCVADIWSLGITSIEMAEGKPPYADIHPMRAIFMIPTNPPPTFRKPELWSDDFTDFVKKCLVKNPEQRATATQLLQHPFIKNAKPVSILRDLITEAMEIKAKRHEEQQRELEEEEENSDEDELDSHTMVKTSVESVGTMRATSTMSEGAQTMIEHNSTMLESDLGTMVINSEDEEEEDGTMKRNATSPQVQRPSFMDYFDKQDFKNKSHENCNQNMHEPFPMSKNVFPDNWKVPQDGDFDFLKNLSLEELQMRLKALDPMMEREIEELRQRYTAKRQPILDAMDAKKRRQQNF

Ephrin type-A receptor 2 = Ephrin type-A receptor 2 (Homo sapiens, UniProt P29317); assay type: functional;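 note: EPHA2 tested as one member of a kinome-wide kinase panel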
[5] = target: Hepatocyte growth factor receptor (Homo sapiens, UniProt P08581); assay type: functional;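 note: kinase panel profiling across the kinome, with MET as the panel member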
[6] = target: Calcium/calmodulin-dependent protein kinase type 1 (Homo sapiens, UniProt Q14012); assay type: functional
Chain of Calcium/calmodulin-dependent protein kinase type 1 (Q14012 whole entry): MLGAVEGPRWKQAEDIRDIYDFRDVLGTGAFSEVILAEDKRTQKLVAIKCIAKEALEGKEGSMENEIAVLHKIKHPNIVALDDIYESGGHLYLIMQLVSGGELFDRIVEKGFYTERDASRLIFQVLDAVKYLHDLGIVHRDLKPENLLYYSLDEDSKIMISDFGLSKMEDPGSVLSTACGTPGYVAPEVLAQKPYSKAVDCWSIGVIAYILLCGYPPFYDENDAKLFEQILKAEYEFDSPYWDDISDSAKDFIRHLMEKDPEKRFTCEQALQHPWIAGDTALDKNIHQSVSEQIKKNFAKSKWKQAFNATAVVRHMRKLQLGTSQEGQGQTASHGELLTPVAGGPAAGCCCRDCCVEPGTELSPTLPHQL

[7] = target: Receptor-type tyrosine-protein kinase FLT3 (Homo sapiens, UniProt P36888); assay type: functional;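 note: FLT3 was tested as one member of a kinome-wide kinase panel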
Chain of Receptor-type tyrosine-protein kinase FLT3 (P36888 whole entry, canonical isoform): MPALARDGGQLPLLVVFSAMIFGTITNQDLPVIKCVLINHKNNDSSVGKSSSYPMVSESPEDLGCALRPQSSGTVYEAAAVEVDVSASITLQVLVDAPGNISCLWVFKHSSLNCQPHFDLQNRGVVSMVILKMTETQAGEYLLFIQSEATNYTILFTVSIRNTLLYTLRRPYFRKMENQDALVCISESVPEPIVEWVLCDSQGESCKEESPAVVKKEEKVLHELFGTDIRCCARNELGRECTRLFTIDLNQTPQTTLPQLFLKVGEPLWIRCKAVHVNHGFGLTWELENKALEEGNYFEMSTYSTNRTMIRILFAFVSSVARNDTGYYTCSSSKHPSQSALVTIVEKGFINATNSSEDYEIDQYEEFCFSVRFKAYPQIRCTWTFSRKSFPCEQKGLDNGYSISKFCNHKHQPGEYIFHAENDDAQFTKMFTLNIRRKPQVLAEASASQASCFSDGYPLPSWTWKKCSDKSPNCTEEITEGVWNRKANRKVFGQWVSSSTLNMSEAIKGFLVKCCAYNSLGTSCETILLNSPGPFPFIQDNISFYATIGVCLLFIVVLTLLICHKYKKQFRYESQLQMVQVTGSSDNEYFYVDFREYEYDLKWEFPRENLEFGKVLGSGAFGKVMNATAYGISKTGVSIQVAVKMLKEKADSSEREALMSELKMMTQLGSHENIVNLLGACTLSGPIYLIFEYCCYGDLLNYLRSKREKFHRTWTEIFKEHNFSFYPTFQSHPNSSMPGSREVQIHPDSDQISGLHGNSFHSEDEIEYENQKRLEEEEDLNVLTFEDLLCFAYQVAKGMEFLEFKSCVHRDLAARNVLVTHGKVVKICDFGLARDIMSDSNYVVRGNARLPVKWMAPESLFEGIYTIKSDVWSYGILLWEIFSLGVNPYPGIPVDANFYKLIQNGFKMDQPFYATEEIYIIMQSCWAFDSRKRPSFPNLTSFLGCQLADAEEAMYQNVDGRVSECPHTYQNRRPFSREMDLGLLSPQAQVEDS

[8] = target: Casein kinase I isoform gamma-1 (Homo sapiens, UniProt Q9HCP0); assay type: functional;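 note: measured as the CSNK1G1 member of a kinome profiling panel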
[9] = target: Ribosomal protein S6 kinase beta-1 (Homo sapiens, UniProt P23443); assay type: functional;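 note: measured as one member of a kinome-wide profiling panel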
[10] = target: Serine/threonine-protein kinase pim-2 (Homo sapiens, UniProt Q9P1W9); assay type: functional;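 note: value comes from a broad kinase panel profiling study in which PIM2 was one of the panel members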
[11] = target: Casein kinase II subunit alpha (Homo sapiens, UniProt P68400); assay type: functional
[12] = target: Mitogen-activated protein kinase kinase kinase kinase 4 (Homo sapiens, UniProt O95819); assay type: functional
Chain of Mitogen-activated protein kinase kinase kinase kinase 4 (O95819 whole entry): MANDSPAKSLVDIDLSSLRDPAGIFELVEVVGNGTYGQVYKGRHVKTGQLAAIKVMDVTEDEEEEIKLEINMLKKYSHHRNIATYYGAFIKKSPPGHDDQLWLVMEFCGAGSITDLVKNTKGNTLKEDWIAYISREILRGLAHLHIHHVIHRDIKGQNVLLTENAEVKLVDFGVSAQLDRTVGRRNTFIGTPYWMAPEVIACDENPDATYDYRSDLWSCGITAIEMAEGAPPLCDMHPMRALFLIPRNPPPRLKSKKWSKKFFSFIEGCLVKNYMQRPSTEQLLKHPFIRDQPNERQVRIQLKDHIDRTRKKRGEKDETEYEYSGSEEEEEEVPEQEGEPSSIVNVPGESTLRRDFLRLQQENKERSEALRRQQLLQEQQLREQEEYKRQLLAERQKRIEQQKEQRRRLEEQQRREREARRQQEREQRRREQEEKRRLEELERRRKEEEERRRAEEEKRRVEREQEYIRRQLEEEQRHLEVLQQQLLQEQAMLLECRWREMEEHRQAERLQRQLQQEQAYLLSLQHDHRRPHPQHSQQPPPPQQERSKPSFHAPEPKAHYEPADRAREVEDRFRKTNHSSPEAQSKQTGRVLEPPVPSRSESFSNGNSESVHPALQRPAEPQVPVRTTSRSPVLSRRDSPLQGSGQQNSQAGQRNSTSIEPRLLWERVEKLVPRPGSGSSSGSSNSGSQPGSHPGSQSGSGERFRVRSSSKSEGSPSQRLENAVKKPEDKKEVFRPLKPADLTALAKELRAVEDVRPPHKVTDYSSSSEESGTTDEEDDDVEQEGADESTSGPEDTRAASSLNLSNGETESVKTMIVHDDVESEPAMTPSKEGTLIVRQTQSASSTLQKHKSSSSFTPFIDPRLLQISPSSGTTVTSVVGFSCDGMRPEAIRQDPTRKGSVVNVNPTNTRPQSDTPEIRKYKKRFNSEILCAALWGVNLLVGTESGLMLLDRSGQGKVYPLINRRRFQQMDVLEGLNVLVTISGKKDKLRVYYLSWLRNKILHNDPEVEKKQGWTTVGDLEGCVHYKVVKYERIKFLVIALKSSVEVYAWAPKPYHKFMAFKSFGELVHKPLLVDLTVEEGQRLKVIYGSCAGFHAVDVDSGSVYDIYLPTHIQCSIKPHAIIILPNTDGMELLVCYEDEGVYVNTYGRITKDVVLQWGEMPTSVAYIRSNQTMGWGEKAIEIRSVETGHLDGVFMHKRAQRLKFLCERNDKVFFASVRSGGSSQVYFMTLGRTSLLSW

[13] = target: MAP/microtubule affinity-regulating kinase 3 (Homo sapiens, UniProt P27448); assay type: functional;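 note: MARK3 affinity measured as one member of a kinome panel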
[14] = target: Serine/threonine-protein kinase BRSK1 (Homo sapiens, UniProt Q8TDC3); assay type: functional;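 note: measured within a kinome-wide kinase panel, with the target listed as KIAA1811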
[15] = target: Phosphorylase b kinase gamma catalytic chain, liver/testis isoform (Homo sapiens, UniProt P15735); assay type: functional;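 note: PHKG2 measured as one member of a kinome-wide kinase panel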
[16] = target: Cell division cycle 7-related protein kinase (Homo sapiens, UniProt O00311); assay type: functional;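 note: value obtained from a kinome-wide kinase panel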
[17] = target: Serine/threonine-protein kinase PLK1 (Homo sapiens, UniProt P53350); assay type: functional;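 note: PLK1 measured as one member of a kinome-wide profiling panel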
Chain of Serine/threonine-protein kinase PLK1 (P53350 whole entry): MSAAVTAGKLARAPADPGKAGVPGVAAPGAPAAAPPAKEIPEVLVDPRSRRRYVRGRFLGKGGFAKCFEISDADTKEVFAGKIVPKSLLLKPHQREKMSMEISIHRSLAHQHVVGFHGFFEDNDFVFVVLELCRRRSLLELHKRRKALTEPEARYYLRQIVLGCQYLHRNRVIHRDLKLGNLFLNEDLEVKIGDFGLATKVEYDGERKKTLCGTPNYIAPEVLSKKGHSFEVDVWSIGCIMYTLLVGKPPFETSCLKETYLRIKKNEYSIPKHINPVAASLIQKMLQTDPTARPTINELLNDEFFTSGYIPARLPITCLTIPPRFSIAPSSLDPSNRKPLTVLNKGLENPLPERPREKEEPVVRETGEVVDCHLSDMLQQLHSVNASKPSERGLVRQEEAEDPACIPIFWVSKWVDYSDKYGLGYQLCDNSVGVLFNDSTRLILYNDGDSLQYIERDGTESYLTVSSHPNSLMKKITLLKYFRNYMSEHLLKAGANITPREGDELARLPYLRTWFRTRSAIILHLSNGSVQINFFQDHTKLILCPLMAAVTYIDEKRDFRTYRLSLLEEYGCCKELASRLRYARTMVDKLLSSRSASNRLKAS

[18] = target: Macrophage-stimulating protein receptor (Homo sapiens, UniProt Q04912); assay: Navigating the Kinome. Panel member name: MST1R; assay type: functional
[19] = target: Tyrosine-protein kinase Fyn (Homo sapiens, UniProt P06241); assay type: functional
Chain of Tyrosine-protein kinase Fyn (P06241 whole entry): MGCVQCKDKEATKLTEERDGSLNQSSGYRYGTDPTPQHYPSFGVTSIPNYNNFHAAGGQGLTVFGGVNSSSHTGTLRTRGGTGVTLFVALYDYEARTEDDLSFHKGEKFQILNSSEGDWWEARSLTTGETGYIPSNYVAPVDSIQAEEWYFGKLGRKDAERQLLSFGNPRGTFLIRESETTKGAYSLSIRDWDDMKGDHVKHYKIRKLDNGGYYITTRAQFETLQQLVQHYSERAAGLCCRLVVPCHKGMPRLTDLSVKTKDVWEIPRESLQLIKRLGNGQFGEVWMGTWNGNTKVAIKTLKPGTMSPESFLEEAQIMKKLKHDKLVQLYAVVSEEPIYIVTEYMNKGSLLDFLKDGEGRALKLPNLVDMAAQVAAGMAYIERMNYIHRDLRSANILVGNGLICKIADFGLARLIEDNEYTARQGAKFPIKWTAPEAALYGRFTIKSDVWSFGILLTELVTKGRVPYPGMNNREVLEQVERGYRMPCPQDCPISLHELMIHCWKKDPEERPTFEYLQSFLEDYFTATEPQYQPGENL

[20] = target: Serine/threonine-protein kinase Nek4 (Homo sapiens, UniProt P51957); assay type: functional
Chain of Serine/threonine-protein kinase Nek4 (P51957 whole entry): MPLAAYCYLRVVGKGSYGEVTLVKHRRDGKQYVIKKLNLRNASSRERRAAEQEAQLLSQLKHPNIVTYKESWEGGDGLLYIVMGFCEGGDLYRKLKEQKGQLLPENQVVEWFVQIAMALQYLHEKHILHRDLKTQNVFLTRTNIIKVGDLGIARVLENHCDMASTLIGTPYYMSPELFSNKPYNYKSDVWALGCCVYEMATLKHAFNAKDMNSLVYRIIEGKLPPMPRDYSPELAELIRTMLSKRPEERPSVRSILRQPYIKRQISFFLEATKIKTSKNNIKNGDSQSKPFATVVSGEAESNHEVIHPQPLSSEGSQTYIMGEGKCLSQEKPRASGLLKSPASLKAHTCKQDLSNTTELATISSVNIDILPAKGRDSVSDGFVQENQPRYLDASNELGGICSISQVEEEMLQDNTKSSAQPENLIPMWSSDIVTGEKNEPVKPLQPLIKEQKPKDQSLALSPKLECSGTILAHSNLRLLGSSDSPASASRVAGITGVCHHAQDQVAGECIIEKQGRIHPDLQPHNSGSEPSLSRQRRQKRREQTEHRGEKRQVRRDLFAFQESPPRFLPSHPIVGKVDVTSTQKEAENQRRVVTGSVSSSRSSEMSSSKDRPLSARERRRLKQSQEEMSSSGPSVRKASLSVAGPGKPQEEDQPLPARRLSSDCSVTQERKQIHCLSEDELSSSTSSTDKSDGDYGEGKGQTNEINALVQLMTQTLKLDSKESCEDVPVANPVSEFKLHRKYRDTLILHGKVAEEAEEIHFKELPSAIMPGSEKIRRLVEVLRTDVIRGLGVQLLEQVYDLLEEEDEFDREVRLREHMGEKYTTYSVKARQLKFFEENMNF

SRSF protein kinase 1 = SRSF protein kinase 1 (Homo sapiens, UniProt Q96SB4); assay type: functional;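 note: measured as one member of a kinome-wide kinase profiling panel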
[21] = target: Protein kinase C iota type (Homo sapiens, UniProt P41743); assay type: functional;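 note: measured within a kinome-wide kinase panel, PRKCI as panel member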
[22] = target: Serine/threonine-protein kinase Nek2 (Homo sapiens, UniProt P51955); assay type: functional
[23] = target: Insulin-like growth factor 1 receptor (Homo sapiens, UniProt P08069); assay: Navigating the Kinome. Panel member name: IGF1R; assay type: functional
[24] = target: Dual specificity protein kinase CLK2 (Homo sapiens, UniProt P49760); assay type: functional
[25] = target: Mast/stem cell growth factor receptor Kit (Homo sapiens, UniProt P10721); assay type: functional;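 note: KIT entry within a kinase panel assay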
[26] = target: Glycogen synthase kinase-3 alpha (Homo sapiens, UniProt P49840); assay type: functional;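 note: GSK3A result taken from a broad kinome-wide kinase panel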

Row | Ki [5] | Ki [17] | Compound | AC50 [1] | Ki [2] | Ki [3] | Ki [4] | Ki (Ephrin type-A receptor 2) | Ki [6] | Ki [7] | Ki [8] | Ki [9] | Ki [10] | Ki [11] | Ki [12] | Ki [13] | Ki [14] | Ki [15] | Ki [16] | Ki [18] | Ki [19] | also measured
1 |  |  | CCOC(=O)c1c2c(n(Cc3ccccc3)c1C)C(=O)C(=O)c1ccccc1-2 | 263 nM (active) |  |  |  |  |  |  |  |  |  |  |  |  |  |  |  |  |  | 
2 | > 3160 nM (inactive) | > 7940 nM (inactive) | Cc1ccc2nccc(NC(=O)Nc3cccc(C(F)(F)F)n3)c2c1 |  | > 10000 nM (inactive) | > 2510 nM (inactive) | 158 nM (active) | > 3160 nM (inactive) | > 3160 nM (inactive) | 251 nM (active) | > 6310 nM (inactive) | > 6310 nM (inactive) | > 1580 nM (inactive) | 251 nM (active) | > 2510 nM (inactive) | > 6310 nM (inactive) | > 10000 nM (inactive) | > 5010 nM (inactive) | > 1260 nM (inactive) | 2510 nM (active) | > 794 nM (inactive) | Ki [20]: > 6310 nM (inactive); Ki (SRSF protein kinase 1): > 7940 nM (inactive); Ki [21]: > 5010 nM (inactive); Ki [22]: > 10000 nM (inactive); Ki [23]: > 2000 nM (inactive); Ki [24]: > 2000 nM (inactive); Ki [25]: > 3160 nM (inactive)
3 | > 31600 nM (inactive) | > 79400 nM (inactive) | Cc1nn(C)c2sc3c(=O)[nH]cnc3c12 |  |  |  |  |  |  |  |  |  |  |  |  |  |  |  |  |  |  | Ki [26]: 50100 nM (active)
4 |  |  | Cc1c(/N=C2\C=CC(=O)c3ccccc32)c(=O)n(-c2ccccc2)n1C | 2430 nM (active) |  |  |  |  |  |  |  |  |  |  |  |  |  |  |  |  |  | 
5 |  |  | COc1cc2c(cc1F)C(c1ccccc1Cl)=Nc1c(n[nH]c1C)N2 [RG-1530] |  | > 10000 nM (inactive) | 631 nM (active) | 39.8 nM (active) | 50.1 nM (active) | > 3160 nM (inactive) | 79.4 nM (active) | > 6310 nM (inactive) | > 6310 nM (inactive) | > 1580 nM (inactive) | 2510 nM (active) | > 3980 nM (inactive) | > 2510 nM (inactive) | 1260 nM (active) | 3160 nM (active) | > 1260 nM (inactive) | 39.8 nM (active) | 316 nM (active) | Ki [26]: 50.1 nM (active); Ki [20]: > 6310 nM (inactive); Ki (SRSF protein kinase 1): 3160 nM (active); Ki [21]: > 5010 nM (inactive); Ki [22]: > 6310 nM (inactive); Ki [23]: > 1260 nM (inactive); Ki [24]: 2510 nM (active); Ki [25]: 200 nM (active)
